According to US20250346588A1, “IMIDAZOPYRIDINE AND OXAZOLOPYRIDINE DERIVATIVES AND ANALOGS THEREOF, METHODS OF PREPARATION THEREOF, METHODS OF HIF-1/2A PATHWAY INHIBITION, AND INDUCTION OF FERROPTOSIS” (KUDA THERAPEUTICS, INC., priority 2022, published 2025):

What was measured:
ISCA2 = target: T1, ISCA2 (Homo sapiens, UniProt Q86U28); assay: Thermal shift assay with recombinant ISCA2 (SYPRO Orange); type: binding
T1 construct: His6 (N); made in house; host or cells: E. coli Rosetta (DE3)
T1 sequence (Q86U28 9-154): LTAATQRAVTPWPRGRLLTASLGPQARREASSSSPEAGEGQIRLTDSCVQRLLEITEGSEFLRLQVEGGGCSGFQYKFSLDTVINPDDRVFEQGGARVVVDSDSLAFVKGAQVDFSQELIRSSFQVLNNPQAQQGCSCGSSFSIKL
Description: Thermal shift assays were performed by monitoring the change in protein melting temperature (Tm) in the absence or presence of test compounds, using the hydrophobic protein binding dye, SYPRO Orange (S6650, Thermo Fisher Scientific), measured using the LightCycler 480 (Roche Life Sciences, Indianapolis, IN) according to the manufacturer's protocol. Recombinant ISCA2 was produced by expressing amino acid residues 9-154 of ISCA2 (ISCA2 lacking its mitochondrial localization sequence) in the pET28 vector containing an N-terminal His6 tag in Rosetta (DE3) competent cells (Novagen, Millipore Sigma). ISCA2 production was induced by treating ISCA2 transformed log phase cells with 0.25 mM IPTG for 4 hours at 18° C. ISCA2 was purified using Ni^2+ affinity purification according to standard protocols and eluted in 50 mM Tris-C1 pH7.4, 150 mM NaCl, 5 mM DTT. Thermal shift assays were performed in 384-well plates using 1 μl of a 10× concentration of SYPRO Orange, 8 μl of ISCA2 (4 μg protein) and 1 μl of 1-2 mM stock of test compound per well. The LightCycler was used according to the following setup: LightCycler 480 Instrument Temperature Setup: First target of 20° C., with a Hold of 15 seconds; second target of 95° C., with Acquisition Mode of Continuous, and 10 acquisitions per degree c.; and third target of 20° C., with a Hold of 15 seconds. Tms were determined using Roche Protein Melting Analysis Software. Representative data are shown in FIGS. 6 and 7 using compound 1 and 26HCL at 200 and 100 µM final concentration respectively. […] These findings are supported by studies showing that re-expression of VHL (which increases ISCA2) and overexpression of ISCA2 itself, promotes the resistance of cells to the compounds (shown in FIG. 8).

[1] = test system: RCC4 or 786-0 cells±pVHL re-expression; assay: Cell viability with pVHL re-expression; type: cell-based, human; conditions: 48h
786-0 ccRCC cells = assay: ICP-MS of cellular iron, zinc and copper; type: cell-based, human; conditions: 786-0 cells, 2.5 μM compound
Description: These studies were performed to determine the content of iron and other transition metals in cells after exposure the compounds described herein. 786-0 cells were seeded at 1.5 million cells/flask in T75 cm^2 flasks in DMEM+10% FBS, and allowed to adhere overnight. Cells were then treated with indicated concentrations of compounds in DMSO or DMSO alone (vehicle) for a further 24 h, after which cells were detached by trypsinization, counted, washed twice in phosphate-buffered saline (PBS) and pelleted. Experiments were performed using three replicate T75 cm^2 flasks per condition. A 5:1 mixture of nitric acid (OPTIMA Grade, 70%, Fisher Scientific) and ultrapure hydrogen peroxide (ULTREX II, 30%, Fisher Scientific) was added to cell pellets. This mixture was allowed to digest overnight, heated until dry, and resuspended in 2% nitric acid for analysis using an Agilent 7900 ICP-MS (Agilent Technologies, Santa Clara, CA). Calibration standard solutions for determination of Fe were prepared from Agilent multi-element calibration standard-2A. An Agilent Environmental Calibration Standard was used as an independent control. PBS-only control digestions were used to measure background. Metal readings were normalized to cell number. Data obtained from these studies for three replicate readings (with SEM) are shown in FIG. 3, which show an increase in cellular iron (Fe) content after treatment with indicated compounds.

[2] = test system: HIF target genes VEGFA and POU5F1; assay: qPCR of HIF target genes; type: cell-based, human; conditions: FIG. 2C
Description: For qPCR, cells seeded as described above were harvested for RNA isolation using the RNA Clean and Concentrator kit (Zymo Research, Irvine CA) according to the manufacturer's protocol. cDNA was prepared using the High Capacity […] kit from Thermo Fisher Scientific (Waltham, […]). qRT-PCR was performed using pre-designed Taqman Gene Expression assay primer/probes and master mix (Thermo Fisher Scientific) according to the manufacturer's protocol using the QuantStudio 3 Real-Time PCR System (ThermoFisher). Relative changes in gene expression normalized to the control gene, […] was determined using the ΔΔCt method.

SMILES: COc1ccc(-c2nnc(Nc3nc4c(OC)nccc4[nH]3)o2)cc1OC [Compound 26HCL, N-(4-Methoxy-1H-imidazo[4,5-c]pyridin-2-yl)-5-(3,4-dimethoxyphenyl)-1,3,4-oxadiazol-2-amine]
- Tm of ISCA2 in compound-treated wells (ISCA2; 100 μM compound, control wells 55.02±0.2): 56.3±0.02 °C
- change in melting temperature of ISCA2 (in words) (ISCA2; compound 1 and 26HCL at 200 and 100 μM final concentration respectively): significant change in melting temperature of ISCA2
- effect of pVHL re-expression on cell viability response to compound [1]: re-expression of pVHL promotes resistance
- cellular iron (Fe), zinc (Zn) and copper (Cu) content (786-0 ccRCC cells): increases the content of iron, zinc and copper in cells
- effect on transcription of HIF target genes (VEGFA, POU5F1) [2]: decrease transcription of HIF target genes
